Reference: publication PMC9616048, “Thermal proteome profiling reveals Haemonchus orphan protein HCO_011565 as a target of the nematocidal small molecule UMW-868” (Frontiers in Pharmacology, 2022)

Key:
[1] = test system: HCO_011565; assay: Thermal proteome profiling (TPP); type: binding, Haemonchus contortus; details: UMW-868 at 50 μM, xL3 protein extract, 37–67°C, versus PBS control
Source text: (§1) TPP is an advanced, multiplexed mass-spectrometry method that allows the unbiased identification or detection of drug targets ([Savitski et al., 2014]; [Perrin et al., 2020]; [Mateus et al., 2022]); it relies on the thermostability of protein-drug interactions to identify potential target protein(s) through denaturation profiles (melting curves) upon heat treatment ([Childs et al., 2019]), and has proven capacity to specifically identify targets of anti-cancer drugs or drug candidates ([Savitski et al., 2014]; [Perrin et al., 2020]; [Mateus et al., 2022]). […] The protein concentration in the supernatant was measured using a BCA Protein Assay Kit (Thermo Fisher Scientific), adjusted to 2 mg/ml and divided into four 250 μl aliquots/replicates (each containing 500 μg protein). • (ii) Incubation with compound (UMW-868), and temperature profile: Of the four 250 µl aliquots of xL3 proteins, two (i.e., test-samples) were each incubated with an equal volume of compound (UMW-868 at 50 μM), and two (control-samples) with an equal volume of PBS (pH 7.0) for 30 min at 23°C. […]

[2] = test system: HCO_014287; assay: Thermal proteome profiling (TPP); type: binding, Haemonchus contortus; details: UMW-868 at 50 μM, xL3 protein extract, 37–67°C, versus PBS control
Source text: as §1

[3] = test system: exsheathed third-stage larvae (xL3s) of H. contortus; assay: High throughput screen, xL3 motility (infrared light beam-interference); type: cell-based; details: Haemonchus contortus, 90 h, read-out: Motility reduction at 90 h (%)
Experimental: An established platform was used for compound screening ([Taki et al., 2021a]). Using a semi-automated liquid handling robot (VIAFLO ASSIST PLUS, Integra Biosciences), compounds were individually diluted to […] in LB* containing 0.2% (v/v) DMSO and then dispensed in 20 µl into the wells of sterile 384-well flat bottom microtitre plates (cat. no. 3680; Corning); 320 compounds were arrayed on each plate, with 16 wells being negative controls (with LB* + 0.2% DMSO) and four wells containing each monepantel (Zolvix; Elanco), moxidectin (Cydectin; Virbac), monepantel + abamectin (Zolvix Plus; Elanco) and compound MIPS-0018666 (abbreviated here as M-666) ([Le et al., 2018]) as positive controls (20 µM). Following the dilution and dispensing of compounds into plates, 80 H. contortus xL3s in 20 μl of LB* were transferred to individual wells; after this step, the final concentrations were 20 µM of test- or positive-control compound, and 0.2% of DMSO. During dispensing, xL3s were maintained in a homogenous suspension using a constant stream of bubbles produced employing an aquarium pump (H2Pro). Plates containing H. contortus xL3s were incubated at 38 °C, 10% (v/v) CO2 and >90% relative humidity.
After 90 h of incubation with compounds (20 μM), H. contortus xL3s motility was measured for 15 min in individual wells of each plate by infrared light beam-interference ([Simonetta and Golombek, 2007]) using a WMicroTracker ONE instrument (Phylumtech). Raw data captured were normalised against measurements obtained for the positive (monepantel) and negative (LB* + 0.2% DMSO) controls to remove plate-to-plate variation by calculating the percentage of motility using the program GraphPad Prism (v.9.1.2; GraphPad Software). A compound was considered active (“hit”) if it reduced larval motility by ≥ 70%. To continually assess the performance of the screening assay, the Z′-factor ([Zhang et al., 1999]) was calculated (using data for the DMSO and the M-666 controls) for individual plates (n = 43) and was consistently ≥0.7; reliable assays achieve a Z′-factor of between 0.5 and 1. The signal to background (S/B) ratio (for the same controls) ([Sui and Wu, 2007]) was consistently >200.

In the case of `CCCc1ccc(-c2nc(-c3cccs3)no2)cc1` [UMW-868, 5-(4-propylphenyl)-3-(2-thienyl)-1,2,4-oxadiazole], the “thermostability of protein in presence of compound” value [1] is reported as “highest, statistically significant thermostability”, the “thermostability of protein in presence of compound” value [2] is reported as “highest, statistically significant thermostability” and the inhibition at 20 µM [3] is reported as 78.4%.
